This is an account of results in patent publication US20020115177A1, “Regulation of human histone deacetylase” (priority 2000, published 2002).

The subject of data set [1] is histone deacetylase (SEQ ID NO:2). Description: Histone deacetylase assay with nuclear extract of recombinant HEK293 cells (3H-acetylated chicken core histones). In kind it is biochemical, human. Particulars: TSA 1 μM; 30° C. for 90 minutes; released radioactivity.
Procedure: Carboxy-terminal myc tagged histone deacetylase (SEQ ID NO:2) was cloned into a pcDNA3.1 vector and transfected into HEK293 cells. Recombinant clones were isolated and analyzed for histone deacetylase (HDAC) activity using the following procedure. Eight million recombinant or control cells were rinsed in 10 ml. of cold PBS, scraped, and spun at 500× g for 5 minutes. The cell pellet was rinsed with cold PBS and transferred to an Eppendorf tube. Nuclei were prepared by lysing the cells in 1 ml of Buffer A (10 mM HEPES, pH 7.5, 10 mM KCl, 1.5mM MgCl2, 0.5% NP40 and a cocktail of protease inhibitors without EDTA) on ice for 30 minutes. The lysate was spun at 1500× g for 5 minutes, then the supernatant was discarded. The pellet was washed in Buffer A without NP40. The nuclear pellet was sonicated three times for 5 seconds each on ice in 0.5 ml of 20 mM HEPES pH7.5, 1.5mM MgCl2, 10% glycerol and a cocktail of protease inhibitors without EDTA. The nuclear lysate was spun at 100,000× g for 30 min. Fifty μl aliquots of supernantant were stored at −80° C.
A HDAC assay was carried out in 100 μL of 25mM HEPES pH 7.5 buffer containing 0.1 mg/ml BSA, 1 mM MgCl2, 0.005% Triton X-100, ^3H-acetylated chicken core histones, and varying (0.5 to 4 μg) amounts of nuclear extracts at 30° C. for 90 minutes. […] Released radioactivity was counted as a measure of HDAC activity. […]
In data set [2] the test system is human histone deacetylase. Nature of the data set: Expression of human histone deacetylase in oligonucleotide-treated HCT116 cells, by Western blotting. Particulars: oligonucleotide 10 μM once per day for seven days. In kind it is cell-based. Here is the method:
The cell line used for testing is the human colon cancer cell line HCT116. Cells are cultured in RPMI-1640 with 10-15% fetal calf serum at a concentration of 10,000 cells per milliliter in a volume of 0.5 ml and kept at 37° C. in a 95% air/5%CO2 atmosphere. Phosphorothioate oligoribonucleotides are synthesized on an Applied Biosystems Model 380B DNA synthesizer using phosphoroamidite chemistry. A sequence of 24 bases complementary to the nucleotides at position 1 to 24 of SEQ ID NO: 1 is used as the test oligonucleotide. As a control, another (random) sequence is used: 5'-[NT] ID NO:23). Following assembly and deprotection, oligonucleotides are ethanol-precipitated twice, dried, and suspended in phosphate buffered saline at the desired concentration. Purity of the oligonucleotides is tested by capillary gel electrophoresis and ion exchange HPLC. The purified oligonucleotides are added to the culture medium at a concentration of 10 μM once per day for seven days. […] This effect is not observed with the control oligonucleotide. After 3 to 7 days, the number of cells in the cultures is counted using an automatic cell counter. The number of cells in cultures treated with the test oligonucleotide (expressed as 100%) is compared with the number of cells in cultures treated with the control oligonucleotide.

`CC(/C=C/C(=O)NO)=C\[C@@H](C)C(=O)c1ccc(N(C)C)cc1` [TSA, Trichostatin A]: the “inhibition of HDAC activity of recombinant nuclear extract” value in data set [1] is on record as “inhibited”.

With “control oligonucleotide: Control (random) sequence: 5′-TCAACTGACTAGATGTACATGGAC-5′ (SEQ ID NO:23) (TCAACTGACTAGATGTACATGGAC; listed as DNA, chemistry not fully specified)”, the “expression of human histone deacetylase as determined by Western blotting” value in data set [2] is “not observed”.
